According to patent US9546179B2, “Heterocycle amido alkyloxy substituted quinazoline derivative and use thereof” (priority 2011, dated 2017):

Biological target: T1, receptor tyrosine kinase EGFR (Homo sapiens, UniProt P00533)
T1 construct: purchased Shanghai 3bio Technology Co., Ltd. Lot No. 4018780925
Test: Inhibitory effect on receptor tyrosine kinase EGFR (ELISA, Poly(Glu, Tyr)4:1, PY99 antibody)
Assay type: biochemical
Settings: ATP 4 μM, 1 hour at 37° C.
Protocol: Poly(Glu, Tyr)4:1 was diluted into 100 μg/ml by PBS without potassium. Enzyme label plate was coated with 37 μl/well at 37° C. overnight,
The liquid in the wells was removed. The plate was rinsed by T-PBS for 5 minutes, and dried at 37° C. after repeated 3 times.
The testing sample was diluted to the concentration concerned by reaction buffer solution, and added into the wells of the coated enzyme label plate. The concentration diluted should realize 1.0000 μg/ml, 0.1250 μg/ml, 0.0156 μg/ml, 0.00195 μg/ml and 0.00024 μg/ml in the 100 μl reaction.
Adding in ATP solution (4 μM of final concentration) diluted by reaction buffer solution,
Finally, the tyrosine kinase diluted by reaction buffer solution was added, and forming the reaction with 100 μl total volume.
Meanwhile, negative control wells and enzyme-free control wells were prepared. The reaction was kept in the dark wet box for 1 hour at 37° C. The plate was rinsed by T-PBS for three times after the reaction ended, and blocked by 1% BSA […] for 30 min, and then, PY99 antibody (1:1000 diluted by 0.05% PBST with 1% BSA) was added in 100 μl/well. After incubated at 37° C. for 30 minutes, the plate was rinsed by T-PBS for three times, and the goat anti-mouse IgG marked with HRP (1 mg/ml 1:1000 diluted by 0.05% PBST with 1% BSA) was then added in 100 μl/well. After incubated at 37° C. for 30 minutes, the plate was rinsed by T-PBS for three times.
Colorimetric solution OPD was added in 100 μl/well for 20 minutes' reaction in the dark side at the room temperature. Colorimetric substrate solution OPD was the solution of 0.1 mol/L citric acid-disodium hydrogen phosphate buffer (pH 5.0) with 20 mmol/L OPD and 12 mmol/L H2O2 (freshly prepared when using).
50 μl of 2M H2SO4 (2 mol/L sulfuric acid containing 0.1 mol/L sodium sulfate) was added in to terminate the reaction, and the A492 value was read with adjustable wavelength micro late enzyme-labeling instrument VERSAmax.
The inhibition rate of samples is calculated by the following formula: […]

T1 sequence (P00533 25-1210): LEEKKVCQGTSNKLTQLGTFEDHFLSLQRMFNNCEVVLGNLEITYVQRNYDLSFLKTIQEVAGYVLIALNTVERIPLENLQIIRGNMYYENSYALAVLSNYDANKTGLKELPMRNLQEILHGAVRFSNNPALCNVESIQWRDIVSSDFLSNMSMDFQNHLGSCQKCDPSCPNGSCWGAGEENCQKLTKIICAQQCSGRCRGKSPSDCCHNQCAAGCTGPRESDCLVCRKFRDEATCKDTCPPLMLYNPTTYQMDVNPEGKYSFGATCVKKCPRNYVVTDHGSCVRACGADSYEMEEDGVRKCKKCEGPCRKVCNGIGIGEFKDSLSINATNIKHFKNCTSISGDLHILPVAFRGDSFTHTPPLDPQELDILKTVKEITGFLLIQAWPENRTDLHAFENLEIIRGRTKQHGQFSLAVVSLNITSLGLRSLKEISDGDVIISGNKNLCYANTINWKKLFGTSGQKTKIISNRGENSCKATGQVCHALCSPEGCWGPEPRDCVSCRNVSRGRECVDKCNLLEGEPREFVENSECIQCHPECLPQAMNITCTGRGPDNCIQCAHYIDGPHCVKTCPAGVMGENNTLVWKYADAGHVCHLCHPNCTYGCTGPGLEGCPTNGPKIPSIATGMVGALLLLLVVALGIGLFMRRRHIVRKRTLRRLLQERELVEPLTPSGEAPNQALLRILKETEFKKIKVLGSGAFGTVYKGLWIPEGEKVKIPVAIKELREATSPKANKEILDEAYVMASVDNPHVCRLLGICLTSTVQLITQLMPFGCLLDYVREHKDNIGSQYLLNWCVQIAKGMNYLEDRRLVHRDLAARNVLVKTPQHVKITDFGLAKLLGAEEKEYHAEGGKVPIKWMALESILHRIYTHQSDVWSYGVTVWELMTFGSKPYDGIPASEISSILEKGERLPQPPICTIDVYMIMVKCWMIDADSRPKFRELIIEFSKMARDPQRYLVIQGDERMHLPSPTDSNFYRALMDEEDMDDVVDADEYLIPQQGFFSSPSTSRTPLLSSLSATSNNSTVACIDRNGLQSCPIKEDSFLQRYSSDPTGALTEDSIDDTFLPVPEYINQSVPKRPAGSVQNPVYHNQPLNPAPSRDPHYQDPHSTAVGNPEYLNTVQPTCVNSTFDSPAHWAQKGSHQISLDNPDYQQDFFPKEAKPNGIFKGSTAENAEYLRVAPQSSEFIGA

Compound | IC50 [nM]
C#Cc1cccc(Nc2ncnc3cc(OC)c(OCCCN4CC[C@H]5OCC[C@H]54)cc23)c1 (relative stereo) [Example 50, 4-(3′-ethynylphenylamino)-6-[3-(cis-hexahydrofuro[3,2-b]pyrrole-4-yl)-propoxy]-7-methoxyquinazoline] | 0.1 to 10
COc1cc2ncnc(Nc3ccc(F)c(Cl)c3)c2cc1OCCN1CC[C@H]2OCC[C@H]21 (relative stereo) [Example 54] | > 1000
COc1cc2ncnc(Nc3ccc(F)c(Cl)c3)c2cc1OCCCN1CC[C@H]2OCC[C@H]21 (relative stereo) [Example 78, 4-(3′-chloro-4′-fluorophenylamino)-6-[3-(cis-hexahydrofuro[3,2-b]pyrrole-4-yl)-propoxy]-7-methoxyquinazoline] | 10 to 100
COc1cc2ncnc(Nc3cc(Cl)ccc3F)c2cc1OCCCN1CC2(COC2)C1 [Example 14, 4-(5′-chloro-2′-fluorophenylamino)-6-[3-(2-oxa-6-azaspiro[3.3]heptane-6-yl)-propoxy]-7-methoxyquinazoline] | 0.1 to 10
COc1cc2ncnc(Nc3cc(Cl)ccc3F)c2cc1OCCCN1CCC2(CCOC2)C1 (centres unmarked) [Example 15, 4-(5′-chloro-2′-fluorophenylamino)-6-[3-(2-oxa-7-azaspiro[4.4]nonane-7-yl)-propoxy]-7-methoxyquinazoline] | 10 to 100
COc1cc2ncnc(Nc3cc(Cl)ccc3F)c2cc1OCCCN1C2CCC1COC2 [Example 16, 4-(5′-chloro-2′-fluorophenylamino)-6-[3-(3-oxa-8-azabicyclo[3.2.1]octane-8-yl)-propoxy]-7-methoxyquinazolin] | 10 to 100
COc1cc2ncnc(Nc3cc(Cl)ccc3F)c2cc1OCCCN1CC2(CCOCC2)C1 [Example 18, 4-(5′-chloro-2′-fluorophenylamino)-6-[3-(7-oxa-2-azaspiro[3.5]-nonane-2-yl)-propoxy]-7-methoxyquinazoline] | 10 to 100
COc1cc2ncnc(Nc3cc(Cl)ccc3F)c2cc1OCCCN1CCC2(CCN(C(C)=O)C2)C1 (centres unmarked) [Example 19, 4-(5′-chloro-2′-fluorophenylamino)-6-[3-(7-acetyl-2,7-diazaspiro[4.4]-nonane-2-yl)-propoxy]-7-methoxyquinazoline] | 10 to 100
COc1cc2ncnc(Nc3cc(Cl)ccc3F)c2cc1OCCCN1CCC2(CC1)CNC(=O)C2 [Example 21, 4-(5′-chloro-2′-fluorophenylamino)-6-[3-(2,8-diazaspiro[4.5]decyl-3-ketone-8-yl)-propoxy]-7-methoxyquinazoline] | 10 to 100
COc1cc2ncnc(Nc3cc(Cl)ccc3F)c2cc1OCCCN1CCC2(CCNC2=O)C1 (centres unmarked) [Example 22, 4-(5′-chloro-2′-fluorophenylamino)-6-[3-(2,7-diazaspiro[4.4]nonane-1-ketone-7-yl)-propoxy]-7-methoxyquinazoline] | 10 to 100
COc1cc2ncnc(Nc3cc(Cl)ccc3F)c2cc1OCCCN1CCC2(CCN(C)C2=O)C1 (centres unmarked) [Example 23, 4-(5′-chloro-2′-fluorophenylamino)-6-[3-(2-methyl-2,7-diazaspiro[4.4]nonane-1-ketone-7-yl)-propoxy]-7-methoxyquinazoline] | 10 to 100
COc1cc2ncnc(Nc3cc(Cl)ccc3F)c2cc1OCCCN1CCC2(CC1)CC(=O)N(C)C2 [Example 24, 4-(5′-chloro-2′-fluorophenylamino)-6-[3-(2-methyl-2,8-diazaspiro[4.5]decane-3-ketone-8-yl)-propoxy]-7-methoxyquinazoline] | 10 to 100
COc1cc2ncnc(Nc3cc(Cl)ccc3F)c2cc1OCCCN1CCC2(CCC(=O)N2)CC1 [Example 25, 4-(5′-chloro-2′-fluorophenylamino)-6-[3-(1,8-diazaspiro[4.5]decane-2-ketone-8-yl)-propoxy]-7-methoxyquinazoline] | 10 to 100
COc1cc2ncnc(Nc3cc(Cl)ccc3F)c2cc1OCCCN1CCC2(CC1)CCN(C)C2=O [Example 26, 4-(5′-chloro-2′-fluorophenylamino)-6-[3-(2-methyl-2,8-diazaspiro[4.5]decane-1-ketone-8-yl)-propoxy]-7-methoxyquinazoline] | 10 to 100
COc1cc2ncnc(Nc3cc(Cl)ccc3F)c2cc1OCCCN1CC2(CNC(=O)C2)C1 [Example 27] | 10 to 100
COc1cc2ncnc(Nc3cccc(Cl)c3F)c2cc1OCCCN1CCC2(COC2)C1 [Example 28, 4-(3′-chloro-2′-fluorophenylamino)-6-[3-(2-oxa-6-azaspiro[3.4]octane-6-yl)-propoxy]-7-methoxyquinazoline] | 10 to 100
COc1cc2ncnc(Nc3cccc(Cl)c3F)c2cc1OCCCN1CCC2(CCNC2=O)C1 (centres unmarked) [Example 29, 4-(3′-chloro-2′-fluorophenylamino)-6-[3-(2,7-diazaspiro[4.4]nonane-1-ketone-7-yl)-propoxy]-7-methoxyquinazoline] | 10 to 100
COc1cc2ncnc(Nc3cccc(Cl)c3F)c2cc1OCCCN1CCC2(CCN(C)C2=O)C1 (centres unmarked) [Example 30, 4-(3′-chloro-2′-fluorophenylamino)-6-[3-(2-methyl-2,7-diazaspiro[4.4]nonane-1-ketone-7-yl)-propoxy]-7-methoxyquinazoline] | 10 to 100
COc1cc2ncnc(Nc3cccc(Cl)c3F)c2cc1OCCCN1CCC2(CC1)CC(=O)N(C)C2 [Example 31, 4-(3′-chloro-2′-fluorophenylamino)-6-[3-(2-methyl-2,8-diazaspiro[4.5]decane-3-ketone-8-yl)-propoxy]-7-methoxyquinazoline] | 10 to 100
COc1cc2ncnc(Nc3cccc(Cl)c3F)c2cc1OCCCN1CCC2(CCC(=O)N2)CC1 [Example 32, 4-(3′-chloro-2′-fluorophenylamino)-6-[3-(1,8-diazaspiro[4.5]decane-2-ketone-8-yl)-propoxy]-7-methoxyquinazoline] | 10 to 100
COc1cc2ncnc(Nc3cccc(Cl)c3F)c2cc1OCCCN1CC2(CNC(=O)C2)C1 [Example 33] | 10 to 100
COc1cc2ncnc(Nc3cccc(Cl)c3F)c2cc1OCCCN1CCC2(CC1)CNC(=O)O2 [Example 34, 4-(3′-chloro-2′-fluorophenylamino)-6-[3-(1-oxa-3,8-diazaspiro[4.5]decane-2-ketone-8-yl)-propoxy]-7-methoxyquinazoline] | 0.1 to 10
COc1cc2ncnc(Nc3cccc(Cl)c3F)c2cc1OCCCN1CCC2(C1)CN(C)C(=O)O2 (centres unmarked) [Example 35, 4-(3′-chloro-2′-fluorophenylamino)-6-[3-(3-methyl-1-oxa-3,7-diazaspiro[4.4]nonane-2-ketone-7-yl)-propoxy]-7-methoxycquinazoline] | 0.1 to 10
COc1cc2ncnc(Nc3cccc(Cl)c3F)c2cc1OCCCN1CC2(CNC(=O)O2)C1 [Example 36, 4-(3′-chloro-2′-fluorophenylamino)-6-[3-(5-oxa-2,7-diazaspiro[3.4]octane-6-ketone-2-yl)-propoxy]-7-methoxyquinazoline] | 0.1 to 10
COc1cc2ncnc(Nc3cccc(Cl)c3F)c2cc1OCCCN1CC2(C1)CN(C)C(=O)O2 [Example 37, 4-(3′-chloro-2′-fluorophenylamino)-6-[3-(7-methyl-5-oxa-2,7-diazaspiro[3.4]octane-6-ketone-2-yl)-propoxy]-7-methoxyquinazoline] | 0.1 to 10
C#Cc1cccc(Nc2ncnc3cc(OC)c(OCCCN4CC5(COC5)C4)cc23)c1 [Example 38, 4-(3′-ethynylphenylamino)-6-[3-(2-oxa-6-azaspiro[3.3]heptane-6-yl)-propoxy]-7-methoxyquinazoline] | 10 to 100
